Legend:
Assay type in all cases: in vivo, Rag 1−/− immunodeficient mice
[1] = system: CD4+Foxp3+ Treg cells; test: Flow cytometry of regulatory T cells in colon lamina propria lymphocytes, T cell transfer colitis model; settings: JCM-16021 2.0 g/kg; IFLX 5 mg/kg; FACS, FIG. 4B
Method: After dissecting and isolating the colon from mice, it was washed four times in ice-cold PBS (137 mM NaCl, 2.7 mM KCl, 10 mM Na2HPO4, 1.8 mM KH2PO4, pH 7.4) and then cut into approximately 1 cm long fragments. Intestinal epithelial cells and lamina propria were separated by vigorous shaking in HBSS buffer containing 2 mM EDTA at 37° C. for 30 minutes. Intestinal epithelial cells were collected by centrifugation at 1,000 rpm at 4° C. The remaining colon tissue was incubated with digestion buffer (DMEM medium, 5% fetal calf serum, 1 mg/mL collagenase IV and DNAse I) at 37° C. with shaking for 40 minutes to separate colon lamina propria lymphocytes. The digested colon tissue cell suspension was filtered through a 70 micron cell filter and centrifuged. […]
Colon lamina propria lymphocytes were diluted to 1×10^5 cells/mL and subjected to intracellular staining after fixation and permeabilization. Cells were stained with a primary antibody diluted 1:100 at 4° C. in the dark for 30 minutes and analyzed by flow cytometry using antibodies against CD3 (APC, BD Biosciences), CD4 (FITC, BD Biosciences), and Foxp3 (PE, BD Biosciences). Analysis was performed using a BD LSRFortessa™ flow cytometer (BD Biosciences) and data obtained was analyzed using FlowJo software. […]

[2] = system: Tnf-α and Mcp-1 mRNA; test: qRT-PCR of colon tissue, T cell transfer colitis model
Method: Total RNA was extracted from tissues using Trizol reagent (Invitrogen) and reverse transcribed into cDNA using cDNA synthesis kit (Bio-Rad Laboratories). The cDNA was diluted 50-fold as a template for qRT-PCR. According to the kit instructions mRNA expression levels were detected using SYBR Green fluorescent probe. Primers used for qRT-PCR are: Tnf-α, forward primer 5′-[…]-3′ (SEQ ID NO:1), reverse primer 5′-[…]-3′ (SEQ ID NO:2); Mcp-1, forward primer 5′-[…]-3′ (SEQ ID NO:3), reverse primer 5′-[…]-3′ (SEQ ID NO:4); 18S rRNA, forward primer 5′-[…]-3′ (SEQ ID NO:5), reverse primer 5′-[…]-3′ (SEQ ID NO:6).
(§1) CD4^+ naive T cells were isolated and purified from the spleens of wild-type C57BL/6J mice using a naive CD4+ T cell isolation kit (#130-104-453, Miltenyi Biotech) according to the manufacturer's recommendations. The isolated CD4^+ naive T cells were incubated with antibodies against CD4 (#100406, BioLegend), CD25 (#17025182, eBiosciences) and CD45RB (#103314, BioLegend) and purity was analyzed by BD Fortessa flow cytometer (BD Biosciences). 4×10^5 CD4^+ naive T cells were intraperitoneally injected into Rag 1^−/− immunodeficient mice. Clinical symptoms of colitis including fecal occult blood, loose stool/diarrhea, rough/hunched posture and weight loss were monitored every three days thereafter. […]

[3] = system: ulcerative colitis induced by CD4+ naive T cell transfer; test: CD4+ naive T cell transfer-induced ulcerative colitis model: fecal occult blood, pathological index, H&E/PAS histology
Description: Day one of the experiment is defined as i) adoptive transfer of […] CD4^+ T cells to Rag 1^−/− mice or ii) first day of DSS administration. JCM-16021 was orally administered to mice (weighing approximately 22-24 grams) at doses of 1.0 and 2.0 g/kg. Body weight and fecal bleeding were monitored every three days. Mice were euthanized and serum, colon tissue, spleen, mesenteric lymph nodes and feces were collected for further analysis.
Fecal occult blood test kit was purchased from Nanjing Jiancheng Bioengineering Institute and performed according to the kit instructions.
Histological staining, PAS staining, immunohistochemical staining and immunofluorescent staining: • At the end of the experiment, mouse colon tissue was preserved using 4% paraformaldehyde fixed at 4° C. for 2 hours and embedded in paraffin. After dewaxing, mouse colon tissue sections were washed with PBS and blocked with 3% H2O2. Tissue sections were then blocked with blocking solution (10% horse serum, 0.1% bovine serum albumin, 0.2% gelatin) at room temperature for 1 hour to block non-specific sites. […]
Histological grading of colitis were analyzed based on inflammatory features, extent, regeneration, crypt damage and percentage in hematoxylin-eosin and periodic acid-Schiff stained colon sections. Colitis scores will be determined by two independent researchers blinded to animal treatment.
as §1, with “4×10^5 CD4^+ naive T cells were intraperitoneally injected into Rag 1^−/− immunodeficient mice.” left out

infliximab [IFLX]
ratio of CD4+Foxp3+ Treg cells in isolated LPMC [1]: similar | expression level of Tnf-α mRNA in colon tissue ([2]; FIG. 2B): significantly reduced | expression level of Mcp-1 mRNA in colon tissue ([2]; FIG. 2C): significantly reduced | fecal occult blood ([3]; JCM-16021 1.0 and 2.0 g/kg oral twice daily for three weeks, IFLX 5 mg/kg once weekly, FIG. 1C): did not exhibit similar activity | ulcerative colitis pathological index ([3]; JCM-16021 1.0 and 2.0 g/kg oral twice daily for three weeks, IFLX 5 mg/kg once weekly, FIG. 1D): did not exhibit similar activity | overall therapeutic efficacy (comparison of doses and with IFLX) ([3]; JCM-16021 2.0 g/kg vs 1.0 g/kg, infliximab 5 mg/kg under the same experimental conditions): less effective than JCM-16021
